Source: article PMC5186412 (Future medicinal chemistry, 2015)
Numbered stars: 1 amine (or outer) side, 2 acyl side, 3 side chain; on linkers, the order of the positions; unused ones are H or OH. Bridge positions count the residues as written; N and C are the ends. Square brackets hold non-standard residues; d marks the D form. Peptide text beside a SMILES is read from it. * marks the point of attachment. dLeu(3R-OH) = CC(C)[C@@H](O[*:3])[C@@H](N[*:1])C(=O)[*:2]; Gln(3S,4R-Me2) = C[C@H]([C@H](N)C(=O)O)[C@@H](C)C(N)=O; dTyr(βR-OMe) = CO[C@H](c1ccc(O)cc1)[C@@H](N)C(=O)O; Pip(4S-Cl) = O=C(O)[C@@H]1C[C@@H](Cl)CCN1; X6 = CCC(C)/C=C(C)/C=C\C(O)C(C)(O)C(=O)*; Abu(3R-NH2) = C[C@@H](N)[C@H](N)C(=O)O; NMeT = CN[C@H](C(=O)O)[C@@H](C)O

Details: PAMPA; for logPe: 16 h

Compound | logPe | passive permeability (in words)
CC(C)[C@H]1C(=O)O[C@H](C(C)C)C(=O)N(C)[C@@H](C(C)C)C(=O)O[C@H](C(C)C)C(=O)N(C)[C@@H](C(C)C)C(=O)O[C@H](C(C)C)C(=O)N1C [Enniatin B] | −4.7 | –
destruxin A | – | moderate permeability
desmethyldestruxin B | −6.67 | –
CC(C)[C@H]1C(=O)N(C)[C@@H](C)C(=O)NCCC[C@H](NC(=O)/C=C/C=C/C=O)C(=O)N1C [sclerotiotide F] | below the PAMPA assay’s detection limit | –
destruxin B | −5.29 | moderate permeability
CC[C@H](C)[C@@H]1NC(=O)c2csc(n2)[C@@H](C)NC(=O)[C@H]2N=C(O[C@@H]2C)[C@H](C(C)C)NC(=O)c2csc(n2)[C@@H](Cc2ccccc2)NC(=O)[C@H]2N=C1O[C@@H]2C [Patellamide C] | −4.7 | –
destruxin E2 chlorohydrin | −7.35 | –
CC[C@@H](C)[C@@H]1NC(=O)CNC(=O)[C@@H](C)N(C)C(=O)[C@H](C(C)C)NC(=O)[C@H]([C@@H](C)O)N(C)C(=O)[C@H](C(C)C)NC(=O)[C@H]([C@@H](C)O)N(C)C(=O)[C@H](C(C)C)NC(=O)CNC(=O)[C@@H](Cc2ccccc2)N(C)C(=O)[C@H](C(C)C)NC(=O)[C@H](CO)NC(=O)[C@H](C(C)C)N(C)C(=O)[C@H](CO)N(C)C1=O [verrucamide B] | – | poor passive permeability
CCC(C)/C=C(C)/C=C\C(O)C(C)(O)C(=O)NCC(=O)N[C@H](C(=O)N[C@H](C(=O)N[C@H](C(=O)N[C@H]1C(=O)N[C@H](COC)C(=O)NCC(=O)N[C@@H](C)C(=O)N(C)[C@@H]([C@@H](C)O)C(=O)N[C@H]([C@H](OC)c2ccc(O)cc2)C(=O)N2CC[C@H](Cl)C[C@H]2C(=O)O[C@@H]1C(C)C)[C@@H](C)[C@@H](C)C(N)=O)[C@@H](C)N)[C@@H](C)O (stereo partly drawn) [mirabamide C] (X6-GT[Abu(3R-NH2)][Gln(3S,4R-Me2)][dLeu(3R-OH)][dS](Me)GA[NMeT][dTyr(βR-OMe)][Pip(4S-Cl)]; ester 5-C) | – | poor passive permeability
tentoxin | – | measurable permeability
